Literature values in US8188123B2, “(Pyrrolidin-2-yl)phenyl derivatives” (priority 2008, dated 2012).
Like-named read-outs stand apart in the source and are kept apart here.

Columns and labels:
[1] = system: nerve injured myelinated DRG
mechanical allodynia [2] = settings: local administration to the sciatic nerve 4 h after surgery; Brennan model
spontaneous pain = settings: rat mild thermal injury model
mechanical allodynia [3] = settings: intraperitoneal administration; Chung/von Frey
[4] = system: ectopic discharges in A-beta and A-delta fibres; settings: nerve injury
allodynia = settings: rat CFA model of inflammatory pain

For CCN(c1ccccc1)c1cc(=NC)n(C)c(C)n1.Cl [ZD 7288], the spontaneous activity [1] is listed as “reduces spontaneous activity”, the mechanical allodynia (mechanical allodynia [2]) is listed as “attenuates mechanical allodynia” and the spontaneous pain (spontaneous pain) is listed as “blocks spontaneous pain”. The mechanical allodynia (mechanical allodynia [3]) was “dose-dependently reverses mechanical allodynia”, the “firing frequency of ectopic discharges” value [4] was “reduced the firing frequency of ectopic discharges in A-beta and A-delta fibres, without causing conduction block” and the allodynia (allodynia) was “suppresses allodynia”.
